Results as given in US20240368132A1, “ROCK2 INHIBITORS AND USES THEREOF” (President and Fellows of Harvard College, priority 2021, published 2024).

Key:
ROCK1 = target: T1, ROCK1 (Homo sapiens, UniProt Q13464); test: ROCK1 kinase assay (Reaction Biology Hot Spot kinase assay); format: biochemical; details: purified kinase, 33P-ATP (10 μM), P81 filter-binding method
T1 construct: purchased Reaction Biology
Procedure: (§1) ROCK2 and ROCK] kinase assays
(§2) ROCK2 and ROCK1 enzyme potencies were determined by Reaction Biology (www.reactionbiology.com) using their Hot Spot kinase Assay. The base reaction buffer for the assay was 20 mM Hepes (pH 7.5), 10 mM MgCl2, 1 mM EGTA, 0.01% Brij35, 0.02 mg/mL BSA, 0.1 mM Na3VO4, and 2 mM DTT with a 1% DMSO concentration. Required cofactors were added individually to each kinase reaction. The substrate was freshly prepared in the reaction buffer described above, and then cofactors were delivered. The purified kinase was added to the substrate solution and then gently mixed. Compounds were added from 100% DMSO into the kinase reaction mixture by Acoustic technology (Echo550; nanoliter range) and then incubated for 20 min at room temperature. ^33P-ATP (10 μM) was delivered to initiate the reaction, and then the mixture was incubated again for two hours at room temperature. […] Nat. Biotechnol. 2011 Oct. 30; 29(11):1039-45. doi: 10.1038/nbt.2017.
(§3) The compounds were categorized based on IC50 value as “+”, “++”, “+++”, and “++++”. The category “+” refers to compounds with ROCK IC50 value of >10 μM. The category “++” refers to compounds with a ROCK IC50 value of 10 to 3 μM. The category “+++” refers to compounds with ROCK IC50 value of 3 to 0.3 μM. The category “++++” refers to compounds with a ROCK IC50 value of <0.3 μM. “ND” refers to “not determined.” The compound of an “Example Number” is the final product of an Example entitled the Example Number.

ROCK2 = target: T2, ROCK2 (Homo sapiens, UniProt O75116); test: ROCK2 kinase assay (Reaction Biology Hot Spot kinase assay); format: biochemical; details: purified kinase, 33P-ATP (10 μM), P81 filter-binding method
T2 construct: purchased Reaction Biology
Procedure: as §1, §2, §3

T2 sequence (O75116 whole entry): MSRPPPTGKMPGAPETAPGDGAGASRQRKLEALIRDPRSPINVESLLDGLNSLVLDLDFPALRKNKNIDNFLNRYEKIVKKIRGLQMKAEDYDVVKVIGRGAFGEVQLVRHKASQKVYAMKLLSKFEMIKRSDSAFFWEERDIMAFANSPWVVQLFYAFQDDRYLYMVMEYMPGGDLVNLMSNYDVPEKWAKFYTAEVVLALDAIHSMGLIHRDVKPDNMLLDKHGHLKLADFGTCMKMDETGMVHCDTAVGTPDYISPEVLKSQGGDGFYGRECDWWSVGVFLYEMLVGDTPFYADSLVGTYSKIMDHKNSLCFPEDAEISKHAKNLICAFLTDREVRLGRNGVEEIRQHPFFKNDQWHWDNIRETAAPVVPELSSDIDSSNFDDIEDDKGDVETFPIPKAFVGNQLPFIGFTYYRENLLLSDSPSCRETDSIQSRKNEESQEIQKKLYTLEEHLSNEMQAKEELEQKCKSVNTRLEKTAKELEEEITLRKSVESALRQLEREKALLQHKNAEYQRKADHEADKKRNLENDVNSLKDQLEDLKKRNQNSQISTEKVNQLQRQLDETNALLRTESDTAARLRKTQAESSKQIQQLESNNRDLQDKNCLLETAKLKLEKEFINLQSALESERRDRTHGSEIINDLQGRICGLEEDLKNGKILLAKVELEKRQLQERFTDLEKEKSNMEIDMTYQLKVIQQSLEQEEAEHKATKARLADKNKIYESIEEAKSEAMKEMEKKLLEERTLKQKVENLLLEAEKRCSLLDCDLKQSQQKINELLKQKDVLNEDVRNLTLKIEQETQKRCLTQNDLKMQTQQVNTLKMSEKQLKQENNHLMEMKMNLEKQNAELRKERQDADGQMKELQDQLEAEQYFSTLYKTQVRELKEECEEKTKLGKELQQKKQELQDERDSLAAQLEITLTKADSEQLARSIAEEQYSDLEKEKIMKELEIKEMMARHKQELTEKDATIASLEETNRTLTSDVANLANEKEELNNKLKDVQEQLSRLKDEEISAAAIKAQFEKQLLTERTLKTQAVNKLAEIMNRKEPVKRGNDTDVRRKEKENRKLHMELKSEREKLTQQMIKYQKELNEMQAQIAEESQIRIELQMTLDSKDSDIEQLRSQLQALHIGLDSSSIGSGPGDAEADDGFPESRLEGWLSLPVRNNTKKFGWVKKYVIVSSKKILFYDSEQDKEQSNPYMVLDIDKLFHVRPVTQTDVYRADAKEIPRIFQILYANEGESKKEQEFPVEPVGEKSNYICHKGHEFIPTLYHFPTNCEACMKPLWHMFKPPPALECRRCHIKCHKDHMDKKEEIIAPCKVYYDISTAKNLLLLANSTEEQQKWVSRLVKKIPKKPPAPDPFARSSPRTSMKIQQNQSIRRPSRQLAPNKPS
T1 sequence (Q13464 whole entry): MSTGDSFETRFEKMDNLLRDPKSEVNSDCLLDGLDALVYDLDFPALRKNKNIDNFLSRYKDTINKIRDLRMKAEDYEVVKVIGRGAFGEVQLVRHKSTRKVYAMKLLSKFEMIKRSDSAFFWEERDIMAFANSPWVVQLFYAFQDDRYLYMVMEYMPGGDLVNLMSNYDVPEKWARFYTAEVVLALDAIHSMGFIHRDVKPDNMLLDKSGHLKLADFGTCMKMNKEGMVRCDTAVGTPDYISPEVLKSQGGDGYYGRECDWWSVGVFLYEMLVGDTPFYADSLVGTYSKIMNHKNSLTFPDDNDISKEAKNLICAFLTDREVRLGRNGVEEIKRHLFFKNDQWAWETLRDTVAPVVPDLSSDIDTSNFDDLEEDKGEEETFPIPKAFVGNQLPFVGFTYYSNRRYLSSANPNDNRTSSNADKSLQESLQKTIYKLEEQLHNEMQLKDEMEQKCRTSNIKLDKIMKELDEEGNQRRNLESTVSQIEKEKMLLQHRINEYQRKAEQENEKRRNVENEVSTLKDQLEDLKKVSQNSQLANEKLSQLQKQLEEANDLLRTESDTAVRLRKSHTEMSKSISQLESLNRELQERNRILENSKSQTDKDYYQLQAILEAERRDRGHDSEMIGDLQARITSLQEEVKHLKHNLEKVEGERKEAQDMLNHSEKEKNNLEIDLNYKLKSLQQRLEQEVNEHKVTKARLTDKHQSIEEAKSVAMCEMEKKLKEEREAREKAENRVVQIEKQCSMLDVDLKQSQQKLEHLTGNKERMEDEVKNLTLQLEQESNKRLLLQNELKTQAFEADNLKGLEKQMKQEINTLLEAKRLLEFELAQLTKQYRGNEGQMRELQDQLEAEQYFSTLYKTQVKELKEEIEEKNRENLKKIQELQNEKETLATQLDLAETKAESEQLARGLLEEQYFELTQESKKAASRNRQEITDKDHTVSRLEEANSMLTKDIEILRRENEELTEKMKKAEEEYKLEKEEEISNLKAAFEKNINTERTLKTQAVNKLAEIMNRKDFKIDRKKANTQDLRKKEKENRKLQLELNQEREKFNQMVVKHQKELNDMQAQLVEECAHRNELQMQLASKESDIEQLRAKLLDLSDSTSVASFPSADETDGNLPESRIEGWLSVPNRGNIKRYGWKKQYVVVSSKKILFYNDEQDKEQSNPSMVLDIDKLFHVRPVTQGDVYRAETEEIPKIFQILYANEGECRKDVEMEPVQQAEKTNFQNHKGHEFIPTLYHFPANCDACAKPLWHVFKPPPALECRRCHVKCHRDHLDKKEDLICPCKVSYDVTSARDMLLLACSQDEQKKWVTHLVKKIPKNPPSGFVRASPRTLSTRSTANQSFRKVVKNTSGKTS

Row | SMILES | IC50 (ROCK1) [nM] | IC50 (ROCK2) [nM]
1 | O=C(Nc1cccc(-n2nc(Nc3ccc4[nH]ncc4c3)c3ccccc32)c1)c1c[nH]cn1 [Example 22] | 3000 to 10000 | 300 to 3000
2 | O=C(Nc1cccc(-c2noc(Nc3ccc4[nH]ncc4c3Cl)n2)c1)c1ccccc1F [Example 61, N-(3-(5-((4-chloro-1H-indazol-5-yl)amino)-1,2,4-oxadiazol-3-yl)phenyl)-2-fluorobenzamide] | < 300 | > 10000
3 | COc1cc(-n2cc(C)c(Nc3ccc4[nH]ncc4c3Cl)n2)ccc1C(=O)NC1CCCC1 [Example 87] | 300 to 3000 | < 300
4 | Cn1cc(C(=O)Nc2cccc(-n3nc(Nc4ccc5[nH]ncc5c4Cl)c4cccnc43)c2)cn1 [Example 60] | < 300 | < 300
5 | COc1cc(-n2ccc(Nc3ccc4[nH]ncc4c3Cl)n2)ccc1OCC(=O)NC(C)C [Example 12] | 300 to 3000 | < 300
6 | COc1cc(-n2nc(Nc3ccc4[nH]ncc4c3)c3ccccc32)ccc1OCC(=O)NC(C)C [Example 17] | 300 to 3000 | < 300
7 | O=C(Nc1cccc(-n2nc(Nc3ccc4[nH]ncc4c3Cl)c3ccccc32)c1)c1cccnc1 [Example 32] | > 10000 | < 300
8 | Cn1cc(C(=O)Nc2cccc(-n3nc(Nc4ccc5[nH]ncc5c4)c4ccccc43)c2)cn1 [Example 21] | 3000 to 10000 | 300 to 3000
9 | COc1cc(-n2nc(C(F)(F)F)cc2Nc2ccc3[nH]ncc3c2Cl)ccc1OCC(=O)NC(C)C [Example 70, 2-(4-(5-((4-chloro-1H-indazol-5-yl)amino)-3-(trifluoromethyl)-1H-pyrazol-1-yl)-2-methoxyphenoxy)—N-isopropylacetamide] | 300 to 3000 | 300 to 3000
10 | Cc1cn(-c2cccc(NC(=O)c3cnn(C)c3)c2)nc1Nc1ccc2[nH]ncc2c1 [Example 3, N-(3-(3-((1H-indazol-5-yl)amino)-4-methyl-1H-pyrazol-1-yl)phenyl)-1-methyl-1H-pyrazole-4-carboxamide] | < 300 | < 300
11 | COc1nc(-n2nc(Nc3ccc4[nH]ncc4c3Cl)c3ccccc32)ccc1OCC(=O)NC(C)C [Example 19] | < 300 | < 300
12 | COC(=O)CN1CCOc2cc(-n3cc(C)c(Nc4ccc5[nH]ncc5c4Cl)n3)ccc21 [Example 76, methyl 2-[7-[3-[(4-chloro-1H-indazol-5-yl)amino]-4-methyl-pyrazol-1-yl]-2,3-dihydro-1,4-benzoxazin-4-yl]acetate] | > 10000 | > 10000
13 | Cc1cn(-c2ccc3c(c2)CCN(S(=O)(=O)C2CC2)C3)nc1Nc1ccc2[nH]ncc2c1Cl [Example 82] | > 10000 | < 300
14 | Clc1c(Nc2nnc(-c3cccc(-c4ncco4)c3)o2)ccc2[nH]ncc12 [Example 50, N-(4-chloro-1H-indazol-5-yl)-5-(3-(oxazol-2-yl)phenyl)-1,3,4-oxadiazol-2-amine] | < 300 | < 300
15 | Cn1cc(C(=O)Nc2cccc(-c3noc(Nc4ccc5[nH]ncc5c4)n3)c2)cn1 [Example 42] | < 300 | < 300
16 | Cn1cc(-c2nnc(Nc3ccc4[nH]ncc4c3Cl)o2)cc(NC(=O)c2ccccc2F)c1=O [Example 52, N-(5-(5-((4-chloro-1H-indazol-5-yl)amino)-1,3,4-oxadiazol-2-yl)-1-methyl-2-oxo-1,2-dihydropyridin-3-yl)-2-fluorobenzamide] | < 300 | < 300
17 | Cc1cn(-c2ccc3c(c2)CCN(CC(C)C)C3=O)nc1Nc1ccc2[nH]ncc2c1Cl [Example 84, 6-[3-[(4-chloro-1H-indazol-5-yl)amino]-4-methyl-pyrazol-1-yl]-2-isobutyl-3,4-dihydroisoquinolin-1-one] | 3000 to 10000 | < 300
18 | O=C(Cc1ncc[nH]1)Nc1cccc(-n2nc(Nc3ccc4[nH]ncc4c3)c3ccccc32)c1 [Example 27] | 3000 to 10000 | 300 to 3000
19 | COc1ncc(C(=O)Nc2cccc(-n3nc(Nc4ccc5[nH]ncc5c4)c4ccccc43)c2)cn1 [Example 25] | 300 to 3000 | 300 to 3000
20 | Cn1cc(C(=O)Nc2cccc(-c3noc(Nc4ccc5[nH]ncc5c4Cl)n3)c2)cn1 [Example 62, N-(3-(5-((4-chloro-1H-indazol-5-yl)amino)-1,2,4-oxadiazol-3-yl)phenyl)-1-methyl-1H-pyrazole-4-carboxamide] | < 300 | < 300
21 | Cn1cc(C(=O)Nc2cncc(-n3nc(Nc4ccc5[nH]ncc5c4Cl)c4ccccc43)c2)cn1 [Example 54, N-(5-(3-((4-chloro-1H-indazol-5-yl)amino)-1H-indazol-1-yl)pyridin-3-yl)-1-methyl-1H-pyrazole-4-carboxamide] | > 10000 | > 10000

Results, then the molecule that gave them:

Row | IC50 (ROCK1) [nM] | IC50 (ROCK2) [nM] | SMILES
22 | < 300 | < 300 | Cn1cc(C(=O)Nc2cccc(-n3nc(Nc4ccc5[nH]ncc5c4)c4ccccc43)n2)cn1 [Example 45, N-(6-(3-((1H-indazol-5-yl)amino)-1H-indazol-1-yl)pyridin-2-yl)-1-methyl-1H-pyrazole-4-carboxamide]
23 | 300 to 3000 | < 300 | Cc1cc(Nc2ccc3[nH]ncc3c2)nn1-c1cccc(NC(=O)c2cccnc2)c1 [Example 9]
24 | 3000 to 10000 | < 300 | Cn1cc(C(=O)Nc2cc(-n3nc(Nc4ccc5[nH]ncc5c4Cl)c4ccccc43)ccn2)cn1 [Example 53, N-(4-(3-((4-chloro-1H-indazol-5-yl)amino)-1H-indazol-1-yl)pyridin-2-yl)-1-methyl-1H-pyrazole-4-carboxamide]
25 | < 300 | < 300 | Cn1cc(C(=O)Nc2cccc(-c3nc(Nc4ccc5[nH]ncc5c4Cl)no3)c2)cn1 [Example 63, N-(3-(3-((4-chloro-1H-indazol-5-yl)amino)-1,2,4-oxadiazol-5-yl)phenyl)-1-methyl-1H-pyrazole-4-carboxamide]
26 | > 10000 | 300 to 3000 | COc1cc(-n2ccc(Nc3ccc4[nH]ncc4c3)n2)ccc1OCC(=O)NC(C)C [Example 11]
27 | < 300 | < 300 | O=C(Nc1cccc(-c2nnc(Nc3ccc4[nH]ncc4c3)o2)c1)c1cccnc1 [Example 38]
28 | 300 to 3000 | < 300 | Cc1cn(-c2ccc3c(c2)CCN(C(=O)NC(C)C)C3)nc1Nc1ccc2[nH]ncc2c1Cl [Example 78, 6-(3-((4-chloro-1H-indazol-5-yl)amino)-4-methyl-1H-pyrazol-1-yl)-N-isopropyl-3,4-dihydroisoquinoline-2(1H)-carboxamide]
29 | < 300 | < 300 | Cn1cc(C(=O)Nc2cccc(-c3nnc(Nc4ccc5[nH]ncc5c4)o3)c2)cn1 [Example 36]
30 | 3000 to 10000 | 300 to 3000 | O=C(Cc1ccccn1)Nc1cccc(-n2nc(Nc3ccc4[nH]ncc4c3)c3ccccc32)c1 [Example 26]
31 | < 300 | < 300 | Cn1cc(C(=O)Nc2cccc(-c3cc(Nc4ccc5[nH]ncc5c4Cl)no3)c2)cn1 [Example 74, N-(3-(3-((4-chloro-1H-indazol-5-yl)amino)isoxazol-5-yl)phenyl)-1-methyl-1H-pyrazole-4-carboxamide]
32 | > 10000 | > 10000 | Cc1cn(-c2ccc3c(c2)CCN(C(=O)C2CCCC2)C3)nc1Nc1ccc2[nH]ncc2c1Cl [Example 81]
33 | 3000 to 10000 | 300 to 3000 | Cc1cn(-c2ccc3c(c2)OCCN3CC(=O)NC(C)C)nc1Nc1ccc2[nH]ncc2c1Cl [Example 77, 2-[7-[3-[(4-chloro-1H-indazol-5-yl)amino]-4-methyl-pyrazol-1-yl]-2,3-dihydro-1,4-benzoxazin-4-yl]-N-isopropyl-acetamide]
34 | 3000 to 10000 | 300 to 3000 | COc1cc(-n2nc(Nc3ccc4[nH]ncc4c3Cl)c3ccccc32)ccc1OCC(=O)NC(C)C [Example 18]
35 | > 10000 | > 10000 | Cn1cc(C(=O)Nc2cc(-n3nc(Nc4ccc5[nH]ncc5c4Cl)c4ccccc43)cn(C)c2=O)cn1 [Example 69]
